Read-outs that look alike come from different tables or passages of the source.

Holding throughout (assay type): cell-based
Assay [1] relates to P. falciparum chloroquine resistant (CQ-R) W2 strain. The experiment in a line: [3H]-labeled hypoxanthine uptake assay, P. falciparum W2. As to conditions: for IC50: Plasmodium falciparum; for IC50 W2: Table 1. An excerpt:
(§1) The [^3H]-labeled hypoxanthine uptake method was utilized to assay the effectiveness of our sphingoid base analogs in vitro for their ability to inhibit the growth and replication of malaria parasites in RBCs. […] The simian malaria parasite P. knowlesi has also been recognized as a human pathogen of public health concern in South East Asia, and it can be cultured effectively in vitro. This species was therefore included to probe the potential of multi-species efficacy within this compound class.
(§2) Cryopreserved iRBCs were provided by Dr. John W. Barnwell from the Centers for Disease Control and Prevention and maintained in in vitro culture as described in Trager & Jensen, Science 1976, 193 (4254), 673-5.
(§3) Compounds in Table 1 were dissolved in 70% 200-proof pharmaceutical grade ethanol, and a working solution of 0.2 mg/mL was prepared using hypoxanthine- and gentamicin-free incomplete RPMI 1640 (Gibco). Compounds in Table 2 were dissolved in 200 proof pharmaceutical grade ethanol at a concentration of 50 μM and then conjugated to BSA (Sigma) as described.^5 A working solution of 0.2 mg/mL was prepared using hypoxanthine- and gentamicin-free incomplete RPMI 1640 (Gibco). Two compounds were tested per plate in triplicate starting at 0.2 mg/mL and diluted two-fold down to 0.019 μg/mL using hypoxanthine- and gentamicin-free RPMI.
(§4) Parasite inoculum was prepared by mixing parasitized blood, uninfected 0+RBCs (for P. falciparum strains) or rhesus RBCs (for P. knowlesi) and culture medium (deficient in hypoxanthine and gentamicin) to a final concentration of 1% parasitemia and 1% haematocrit. A negative control was prepared by diluting uninfected erythrocytes to 1% haematocrit in culture medium. [^3H]-labeled hypoxanthine was added at 24 h (for P. falciparum strains) or 12 h (P. knowlesi) and the culture was collected 48 h or 12 h later for P. falciparum or P. knowlesi, respectively. [^3H] uptake was measured by using a scintillation spectrophotometer (Wallac Oy 1450 MicroBeta reader).
(§5) Triplicate wells were used to calculate the IC50 for each compound using the software XLFit v5.2 using the sigmoidal model 601. Average and standard deviations were calculated using Microsoft Excel.

The subject of assay [2] is P. falciparum chloroquine susceptible (CQ-S) D6 strain. Briefly: [3H]-labeled hypoxanthine uptake assay, P. falciparum D6. As to conditions: for IC50: Plasmodium falciparum; for IC50 D6: Table 1.
From the text: as §1, §2, §3, §4, §5

The subject of assay [3] is PC-3 prostate cancer cells. Briefly: WST-1 cytotoxicity assay, PC-3. As to conditions: 24 h treatment. As for the experimental part:
(§6) Prostate cancer cells were treated with enigmol or analogue for 24 h, and cytotoxicity was assessed by WST-1 assay. cLogPs were calculated with QuikProp on Maestro.

For assay [4], the system named is LNCaP prostate cancer cells. The experiment in a line: WST-1 cytotoxicity assay, LNCaP. The conditions noted are these: Homo sapiens, 24 h treatment. The method, then: as §6
Another assay deals with P. knowlesi H strain. The experiment in a line: [3H]-labeled hypoxanthine uptake assay, P. knowlesi. The conditions noted are these: Table 1, compounds dissolved in 70% ethanol, not BSA-conjugated; for IC50: Plasmodium knowlesi.
From the text: The [^3H]-labeled hypoxanthine uptake method was utilized to assay the effectiveness of our sphingoid base analogs in vitro for their ability to inhibit the growth and replication of malaria parasites in RBCs. […] The simian malaria parasite P. knowlesi has also been recognized as a human pathogen of public health concern in South East Asia, and it can be cultured effectively in vitro. This species was therefore included to probe the potential of multi-species efficacy within this compound class. The data were generated with the known antimalarial drugs chloroquine and mefloquine as controls.
The H strain of P. knowlesi has been adapted to in vitro culture using Macaca mulatta (rhesus monkey) RBCs essentially as described in Kocken et al., Infect Immun 2002, 70 (2), 655-60 (the media was supplemented with 10% human AB serum).
Chloroquine (Sigma) and mefloquine (Sigma) were used as controls. Compounds in Table 1 were dissolved in 70% 200-proof pharmaceutical grade ethanol, and a working solution of 0.2 mg/mL was prepared using hypoxanthine- and gentamicin-free incomplete RPMI 1640 (Gibco). Compounds in Table 2 were dissolved in 200 proof pharmaceutical grade ethanol at a concentration of 50 μM and then conjugated to BSA (Sigma) as described.^5 A working solution of 0.2 mg/mL was prepared using hypoxanthine- and gentamicin-free incomplete RPMI 1640 (Gibco). Two compounds were tested per plate in triplicate starting at 0.2 mg/mL and diluted two-fold down to 0.019 μg/mL using hypoxanthine- and gentamicin-free RPMI.
as §4, §5

[5] abbreviates: W2, Table 2, compounds conjugated to BSA, read-out: IC50 W2.
[6] abbreviates: D6, Table 2, compounds conjugated to BSA, read-out: IC50 D6.
Setting [7] is: W2, Table 1, compounds dissolved in 70% ethanol, not BSA-conjugated, read-out: IC50 W2.
[8] abbreviates: D6, Table 1, compounds dissolved in 70% ethanol, not BSA-conjugated, read-out: IC50 D6.
The mark [9] stands for this setting: compounds dissolved in 70% ethanol, not BSA-conjugated.

With `CCCCCCCCCCCCC[C@H](O)C[C@H](O)C(C)(C)N` (racemic) [ESPD-0560, (+/−)-syn-2 amino-2-methyloctadecane-3,5-diol], the IC50 in assay [1] (setting [5]) stood at 4.67 ± 1 µM; in assay [2] (setting [6]) it was 5.2 ± 3 µM; in assay [3], 10 µM; in assay [4], 23 µM.

For `CCCCCCCCCCCCC[C@@H](O)C[C@H](O)C(C)(C)N` (racemic) [ESPD-0561, (+/−)-anti-2 amino-2-methyloctadecane-3,5-diol], the IC50 in assay [1] (setting [5]) is 7.43 µM; in assay [2] (setting [6]), 4.1 ± 0.7 µM; in assay [3], 10 µM; in assay [4], 25 µM.

As to `CCCCCCCCCCCCC[C@@H](O)C[C@H](O)C1(N)CC1` (racemic) [ESPD-0859, (+/−)-anti-1-(1-aminocyclopropyl)hexadecane-1,3-diol], the IC50 in assay [1] (setting [5]) was 7.2 ± 4 µM; in assay [2] (setting [6]), 11.2 µM.

For `CCCCCCCCCCCCC[C@H](O)C[C@H](O)C1(N)CC1` (racemic) [ESPD-0860, (+/−)-syn1-(1-aminocyclopropyl)hexadecane-1,3-diol], the figures for the IC50 in assay [1] (setting [5]) and in assay [2] (setting [6]) were 9.9 ± 7 µM and 5.5 µM, respectively.

Consider `CCCCCCCCCCCCC[C@H](O)C[C@H](O)C(C)(C)NC` (racemic) [ESPD-1158, (+/−)-syn-2-methyl-2-(methylamino)octadecane-3,5-diol], for which the IC50 came to 0.25 µM in assay [1] (setting [5]); 0.25 µM in assay [1] (W2, text b107, BSA-conjugated, strain not stated (matches W2 of Table 2), read-out: IC50); 0.7 ± 0.5 µM in assay [2] (setting [6]).

In the case of `CCN(CC)CCCC(C)Nc1ccnc2cc(Cl)ccc12` (centres unmarked) [Chloroquine, reference compound], the IC50 was 0.18 µM in assay [1] (W2, read-out: IC50 W2, Table 1, compounds dissolved in 70% ethanol, not BSA-conjugated); 0.093 µM in assay [1] (W2, read-out: IC50 W2, Table 2, compounds conjugated to BSA); 0.02 µM in assay [2] (D6, read-out: IC50 D6, Table 1, compounds dissolved in 70% ethanol, not BSA-conjugated); 0.011 µM in assay [2] (D6, read-out: IC50 D6, Table 2, compounds conjugated to BSA).

Consider `CCCCCCCCCCCCC[C@@H](O)C[C@H](O)[C@H](C)N` [ESPD-0503], for which the IC50 in assay [1] (setting [7]) was 8.17 ± 1.8 µM; in assay [2] (setting [8]), 12.7 ± 1.2 µM; in the assay with P. knowlesi H strain, 17.6 ± 1.8 µM.

With `CCCCCCCCCCCCC[C@H](O)C[C@@H](O)[C@H](C)N` [ESPD-0505, (2S,3R,5S)-2-Aminooctadecane-3,5-diol], the IC50 was determined as 9.22 ± 1.6 µM in assay [1] (setting [7]), 17.8 ± 1.1 µM in assay [2] (setting [8]) and 20.3 ± 2 µM with P. knowlesi H strain.

With `CCCCCCCCCCCCC[C@H](O)C[C@H](O)[C@H](C)NC(C)=O` [ESPD-0506, N-((2S,3S,5S)-3,5-dihydroxyoctadecan-2-yl)acetamide], the results for the IC50 (in assay [1] (setting [7]); in assay [2] (setting [8]); in the assay with P. knowlesi H strain) were 13.1 ± 3.7 µM, 11.1 ± 0.5 µM and above 58 µM, respectively. Also, the “IC50 W2” value in assay [1] (setting [9]) is listed as “no activity”. For the same molecule, in assay [2] (setting [9]), the “IC50 D6” value was “no activity”. In addition, the “IC50 P. knowlesi” value with P. knowlesi H strain is on record as “no activity”.

For `CCCCCCCCCCCCC[C@H](O)C[C@H](O)[C@H](C)N(C)C` [ESPD-0513, (2S,3S,5S)-2-(dimethylamino)octadecane-3,5-diol], the values for the IC50 (in assay [1] (setting [7]); in assay [2] (setting [8]); in the assay with P. knowlesi H strain) were 4.42 ± 1.1 µM, 7 ± 0.6 µM and 6.83 ± 0.09 µM, respectively.

`CCCCCCCCCCCCCCCC(=O)N[C@@H](C)[C@@H](O)C[C@@H](O)CCCCCCCCCCCCC` [ESPD-0514, N-((2S,3S,5S)-3,5-dihydroxyoctadecan-2-yl)palmitamide]: the IC50 (in assay [1] (setting [7]); in assay [2] (setting [8]); in the assay on P. knowlesi H strain) was above 37 µM in each case. In assay [1] (setting [9]), the “IC50 W2” value was “no activity”. The “IC50 D6” value in assay [2] (setting [9]) is reported as “no activity”. Besides, the “IC50 P. knowlesi” value with P. knowlesi H strain is listed as “no activity”.

Take `CCCCCCCCCCCCC[C@H](O)C[C@H](O)[C@@H]1CCCN1` [ESPD-0522, (1S,3S)-1-((S)-pyrrolidin-2-yl)hexadecane-1,3-diol]: the IC50 in assay [1] (setting [7]) is 4.39 ± 1.5 µM; in assay [2] (setting [8]), 9.7 ± 1 µM; in the assay with P. knowlesi H strain, 6.25 ± 0.27 µM.

For `CCCCCCCCCCCCC[C@H](O)C[C@@H](O)[C@H](C)NC` [ESPD-0559, (2S,3R,5S)-2-(methylamino)octadecane-3,5-diol], the IC50 came out at 8.09 ± 0.24 µM in assay [1] (setting [7]) and 14.6 ± 0.64 µM in assay [2] (setting [8]).

With `CCCCCCCCCCCCCC(O)C/C(=N\O)C(C)(C)N` (centres unmarked) [ESPD-0858, (+/−,E)-2-amino-5-hydroxy-2-methyloctadecan-3-one oxime], the IC50 came out at 10 ± 2.7 µM in assay [1] (setting [5]), 7.44 µM in assay [2] (setting [6]), 24 µM in assay [3] and 24 µM in assay [4].

As for `C[C@H](N)[C@@H](O)C[C@@H](O)CCCCCCCCCCCCC(F)(F)F` [ESPD-01183], the half-inhibitory concentration (IC50) in assay [3] and in assay [4] was 13 µM in each case.

Take `C[C@H](N)[C@@H](O)C[C@@H](O)CCCCCC#CCCCCCC(F)(F)F` [ESPD-01184]: the results for the IC50 in assay [3] and in assay [4] were 92 µM and above 100 µM, respectively.

Regarding `CCCCCCC#CCCCCC[C@H](O)C[C@H](O)[C@H](C)N` [ESPD-01185], the IC50 in assay [3] and in assay [4] was above 100 µM in each case.

In the case of `C[C@H](N)[C@@H](O)C[C@@H](O)CCCCC/C=C/CCCCCC(F)(F)F` [ESPD-01186], the 50% inhibitory concentration (IC50) in assay [3] is 27 µM; in assay [4], 14 µM.

As for `CCCCCC/C=C/CCCCC[C@H](O)C[C@H](O)[C@H](C)N` [ESPD-01187], the IC50 in assay [3] is 33 µM; in assay [4] it was 19 µM.

As for `CCCCCC/C=C\CCCCC[C@H](O)C[C@H](O)[C@H](C)N` [ESPD-01192], the IC50 in assay [3] came to 25 µM; in assay [4] it was 19 µM.

On to `CCCCCCCCCCCCC(F)(F)[C@H](O)C[C@H](O)[C@H](C)N` [ESPD-01406, (2S,3S,5R)-2-amino-6,6-difluorooctadecane-3,5-diol], for which the IC50 in assay [3] stood at 9 µM; in assay [4] it was 10 µM.

As for `CCCCCCCCCCCCC(F)(F)[C@@H](O)C[C@H](O)[C@H](C)N` [ESPD-01407, (2S,3S,5S)-2-amino-6,6-difluorooctadecane-3,5-diol], the IC50 in assay [3] is 9 µM; in assay [4], 10 µM.

As for `CCCCCCCCCCCCC(F)(F)[C@H](O)C[C@@H](O)[C@H](C)N` [ESPD-01408, (2S,3R,5R)-2-amino-6,6-difluorooctadecane-3,5-diol], the IC50 in assay [3] was 9 µM; in assay [4], 10 µM.

As to `CCCCCCCCCCCCC(F)(F)[C@@H](O)C[C@@H](O)[C@H](C)N` [ESPD-01409, (2S,3R,5S)-2-amino-6,6-difluorooctadecane-3,5-diol], the half-maximal inhibitory concentration (IC50) in assay [3] and in assay [4] was 10 µM in each case.

For the molecule `OC(c1cc(C(F)(F)F)nc2c(C(F)(F)F)cccc12)C1CCCCN1` (centres unmarked) [Mefloquine, reference compound], the IC50 was determined as 0.004 µM in assay [1] (setting [5]) and 0.04 µM in the assay with P. knowlesi H strain.

Values taken from patent publication US20140309275A1, “Sphingosine Analogs, Compositions, and Methods Related Thereto” (Emory University, priority 2011, published 2014).
